# How the values were obtained:
# Format in all cases: cell-based
# [1] = system: Fyn; assay: DRM localization of Fyn in PUFA-treated COS-1 cells (sucrose gradient); conditions: COS-1, 50 μM PUFA; untreated 30%
# Procedure: For isolation of detergent resistant microdomains in PUFA-treated COS-1 cells, a confluent 100 mm plate of COS-1 cells transiently transfected with Fyn cDNA was washed with S-IE and subjected to the same procedure described above. Fractions were analyzed for the presence of Fyn by immunoblotting.
# Whether 20:4 and 20:5 inhibited localization of Fyn to detergent resistant microdomains in COS-1 cells was examined next. Cells were treated with or without polyunsaturated fatty acids as described above and layered on the bottom of a sucrose gradient as described above. Fractions were collected and analyzed by immunoblotting with anti-Fyn antibody.
# [2] = target: T1, Fyn (Homo sapiens, UniProt P06241); assay: Fyn fatty acylation (IC13/IC16 incorporation) in transfected COS-1 cells; conditions: for effect of palmitate analog on Fyn fatty acylation: COS-1 cells, data not shown
# T1 construct: expressed in transfected cells; host or cells: COS-1
# T1 sequence (P06241 whole entry, species assumed): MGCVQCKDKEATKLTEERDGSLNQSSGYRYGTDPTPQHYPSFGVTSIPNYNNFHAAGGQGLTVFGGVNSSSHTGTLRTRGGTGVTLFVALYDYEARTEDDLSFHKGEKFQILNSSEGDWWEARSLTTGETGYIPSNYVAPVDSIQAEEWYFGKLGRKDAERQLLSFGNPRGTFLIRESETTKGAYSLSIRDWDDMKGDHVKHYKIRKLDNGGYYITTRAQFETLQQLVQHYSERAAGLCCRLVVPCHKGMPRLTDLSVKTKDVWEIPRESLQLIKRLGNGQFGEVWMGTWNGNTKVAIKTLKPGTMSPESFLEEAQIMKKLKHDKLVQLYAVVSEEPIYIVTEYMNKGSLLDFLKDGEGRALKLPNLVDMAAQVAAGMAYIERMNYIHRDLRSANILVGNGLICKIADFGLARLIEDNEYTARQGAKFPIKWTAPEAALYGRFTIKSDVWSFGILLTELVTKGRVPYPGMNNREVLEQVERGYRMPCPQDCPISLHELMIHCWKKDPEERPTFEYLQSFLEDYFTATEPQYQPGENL
# Procedure: The syntheses of 13-[^125I]-iodotridecanoic acid (IC13)or 16-[^125I]-iodohexanoic acid (IC16) were carried out as described previously (39). Cell labeling was carried out as described (12,13) with modifications. Briefly, each 60 mm plate of Fyn transfected COS-1 cells was incubated O/N in DMEM containing 2.5% FBS, 0.5% defatted BSA (Sigma) with or without 100 μM 2-bromopalmitate or 50 μM polyunsaturated fatty acid. Prior to labeling, the cells were incubated for 1 hr with 1 ml of DMEM containing 2% dialyzed FBS, then labeled for 4 hours with 25-50 μCi IC13 or IC16 in DMEM containing 2% dialyzed FBS, 0.5% defatted BSA with or without 2-bromopalmitate or polyunsaturated fatty acid. Labeled cells were washed three times with cold STE (100 mM NaCl, 10 mM Tris pH 7.4, 1 mM EDTA) and lysed in 0.6 ml of cold RIPA buffer containing protease inhibitors (10 μg/ml each of benzamidine, AEBSF, TPCK and TLCK, 1.5 μg/ml each of Leupeptin, Pepstatin A and Aprotinin). Lysates were clarified at 100,000×g for 15 min at 4° C. in a Beckman TL-100 ultracentrifuge. Lysates were immunoprecipitated with rabbit anti-Fyn antibody and protein A-agarose. Immunoprecipitates were washed three times with cold RIPA buffer and suspended in 1× sample buffer containing 100 mM dithiothreitol and subjected to SDS-PAGE. Gels were dried between cellophane and analyzed by phosphorimaging after 12-36 hours exposure. Experiments in Jurkat T cells were carried out according to the above protocol using 2×10^7 cells per experiment, and reducing the incubation time with 2-bromopalmitate to 3-4 hours.
# A number of palmitic acid analogs were screened for their ability to inhibit Fyn palmitoylation. COS-1 cells were transfected with cDNA encoding Fyn. Three days after transfection, the cells were labeled with either [^35S]-methionine, 13-[^125I]-iodotridecanoic acid (IC13), an iodinated myristate analog, or 16-[^125I]-iodohexanoic acid (IC16), an iodinated palmitic acid analog (39), in the presence or absence of nonradioactive palmitate analogs. Cells were lysed, immunoprecipitated with anti-Fyn antibody, and analyzed by SDS-PAGE and phosphorimaging. […] When normalized for total protein levels, 70% of Fyn myristoylation and over 90% of Fyn palmitoylation was inhibited in the presence of 2-bromopalmitate. Treatment of cells with other analogs, including 2-hydroxypalmitate, palmitoleic acid and 16-hydroxypalmitate had no effect (data not shown).
# To test this hypothesis, Fyn transfected COS-1 cells were incubated O/N with or without 50 μM arachidonic acid (20:4) or eicosapentaenoic acid (20:5), then labeled with IC13 or IC16. Total protein levels were monitored by immunoblotting aliquots of each sample with anti-Fyn antibody (FIG. 8A, lower panel).
# [3] = system: Fyn(16)-eGFP; assay: Localization of Fyn(16)-eGFP in COS-1 cells (fluorescence microscopy, P100/S100 fractionation)
# Procedure: COS-1 cells were transfected with a Fyn(16)-eGFP construct (12) and seeded onto 25-mm glass coverslips 2 days prior to the experiment. Cells were treated overnight with or without 2 bromopalmitate as described above. Plates were washed with PBS and coverslips were mounted onto glass slides in PBS and observed with a 40× and 100×oil immersion lens on a Zeiss Axiophot 2 microscope and photographed with Kodak TMAX 400.
# To investigate the effect of 2-bromopalmitate on the intracellular localization of Fyn more precisely, COS-1 cells expressing a Fyn(16)-eGFP construct were examined by immunofluorescence. This construct contains the first 16 amino acids of Fyn fused in frame to eGFP; the chimera is targeted to the plasma membrane and detergent resistant microdomains (12). Cells were cultured with no treatment, with 2-bromopalmitate or with 2-hydroxymyristate, a known myristoylation inhibitor (40,41), as described above, and were examined live by fluorescence microscopy.
# Analysis of the subcellular localization of Fyn(16)-eGFP in the presence of 2-bromopalmitate and 2-hydroxymyristate was performed as described above for steady-state Fyn. As depicted in FIG. 2B, in the absence of treatment, 80% of Fyn(16)-eGFP Fyn was membrane bound, whereas in cells treated with 2-bromopalmitate and 2-hydroxymyristate, 65% and 78% of Fyn(16)-eGFP were cytosolic, respectively.
"inhibition of incorporation of IC16 into Fyn (palmitoylation) ([2]; COS-1, 50 μM PUFA overnight) [%]",effect of palmitate analog on Fyn fatty acylation [2],SMILES,Fyn found in detergent resistant microdomains [1] [%],further results
55,,CCCCC/C=C\C/C=C\C/C=C\C/C=C\CCCC(=O)O [arachidonic acid],16,"effect on Fyn myristoylation (IC13 incorporation) ([2]; COS-1, 50 μM PUFA overnight): almost no effect"
,no effect,CCCCCC/C=C\CCCCCCCC(=O)O [palmitoleic acid],,
,no effect,CCCCCCCCCCCCCCC(O)C(=O)O (stereo not shown) [2-hydroxypalmitate],,

# The next lines start with the molecule.
SMILES,"inhibition of incorporation of IC16 into Fyn (palmitoylation) ([2]; COS-1, 50 μM PUFA overnight) [%]",effect of palmitate analog on Fyn fatty acylation [2],Fyn found in detergent resistant microdomains [1] [%],further results
O=C(O)CCCCCCCCCCCCCCCO [16-hydroxypalmitate],,no effect,,
CC/C=C\C/C=C\C/C=C\C/C=C\C/C=C\CCCC(=O)O [eicosapentaenoic acid],65,,5.3,
"CCCCCCCCCCCCC(O)C(=O)O (stereo not shown) [2-hydroxymyristate, reference compound]",,,,"Fyn(16)-eGFP cytosolic ([3]; COS-1, 100 μM overnight, P100/S100, untreated 80% membrane bound): 78%; Fyn(16)-eGFP distribution by fluorescence microscopy ([3]; COS-1 live cells, 100 μM overnight): reduced plasma membrane staining"
